The record followed here is patent publication US20220401457A1, “Use of Deoxycholic Acid, Derivatives, or Salts Thereof in Managing Bacterial Infections and Compositions Related Thereto” (Emory University, priority 2019, published 2022).

Experiment [1] deals with pneumococcal colonization (Spn). The experiment can be described thus: Experiments mimicking pneumococcal colonization of the human airways. It counts as cell-based, Streptococcus pneumoniae. Particulars: 0.5 mg/ml; colonization otherwise at density of 1×10^7 cfu/mL pneumococci. How it is done: (§1) Streptococcus pneumoniae (Spn) colonizes the upper airways of most children. From the upper airways, Spn migrates to the ear epithelium causing otitis media, a main cause of child disease in the US. Resistance in Spn strains is a serious concern. Bile salts produced in the human liver and secreted into the gut, including sodium deoxycholate. Sodium deoxycholate at a concentration of 10 mg/mL is an injectable treatment to reduce fat under the chin. The antibacterial potency of sodium deoxycholate against Spn was assessed. […] Most tested pneumococcal strains were reference strains provided by the Centers for Disease Control and Prevention (CDC). […] It is contemplated that sodium deoxycholate can be used as a prophylactic agent to eradicate Spn from the upper airways and/or as a therapeutic agent to treat pneumococcal otitis media. To eradicate Spn from the upper airways of healthy children, a strategy using the following routes can be pursued (1) the use of nasal spray to impregnate the upper airways with sodium deoxycholate, or (2) as an additive to a gel or toothpaste. For its therapeutic used in the treatment of otitis media, ototopical antibiotic preparations can be added with sodium deoxycholate to kill antibiotic resistance Spn strains.

Experiment [2] concerns Streptococcus pneumoniae (Spn) strains. As to the kind of experiment: Antibacterial potency of sodium deoxycholate against cultures of Spn strains. It counts as cell-based. Particulars: concentration as low as 0.5 mg/ml; within two hours of incubation; numerous different Spn strains including vaccine strains and strains with multiple resistance to antibiotics. How it is done:
as §1

In the case of sodium deoxycholate, the “time of exposure to eradicate pneumococcal colonization” value in experiment [1] was at most 10 min. Also, the “killing of cultures of Spn strains” value in experiment [2] was “completely killed”.
